Laboratory results from patent US20170055529A1, “BROAD SPECTRUM WEED CONTROL IN FLOODED RICE BY IN-WATER APPLICATION OF AUXIN HERBICIDES” (priority 2015, published 2017).
Marks after values point to notes of the source that are not given here.

Columns and labels:
Format in all cases: in vivo
[1] = tested on: 'M202' rice (Japonica rice variety from California, USA); experiment: Greenhouse in-water application, transplanted paddy rice (small pots), crop injury
Source text: (§1) Weed seeds of the desired test plant species were planted in puddled soil (mud) prepared by mixing a non-sterilized mineral soil (approximately 50 percent silt, 26 percent clay, and 24 percent sand, with a pH of about 7.6 and an organic matter content of about 2.9 percent) and water at a 1:1 volumetric ratio. The prepared mud was dispensed in 365 milliliter (mL) aliquots into 16-ounce (oz.) non-perforated plastic pots with a surface area of 86.59 square centimeters (cm^2) leaving a headspace of 3 centimeters (cm) in each pot. Mud was allowed to dry overnight prior to planting or transplanting. Rice seeds were planted in Sun Gro® MetroMix® 360 planting mixture, which typically has a pH of 6.0 to 6.8 and an organic matter content of about 30 percent, in plastic plug trays. Seedlings at the second or third leaf stage of growth were transplanted into 840 mL of mud contained in 32-oz. non-perforated plastic pots with a surface area of 86.59 cm^2 four days prior to herbicide application. The paddy was created by filling the headspace of the pots with 2.5 to 3 cm of water. When required to ensure good germination and healthy plants, a fungicide treatment and/or other chemical or physical treatment was applied. The plants were grown for 4-22 days (d) in a greenhouse with an approximate 14-hour (h) photoperiod which was maintained at about 29° C. during the day and 26° C. during the night. Nutrients were added as Osmocote® (19:6:12, Nitrogen:Phosphorus:Potassium (N:P:K)+minor nutrients) at 2 g per 16 oz. pot and 4 g per 32 oz. pot. Water was added on a regular basis to maintain the paddy flood, and supplemental lighting was provided with overhead metal halide 1000-Watt lamps as necessary. The plants were used for testing when they reached the second or third true leaf stage.
(§2) Triclopyr triethylammonium (as Grandstand® R, 359.5 grams acid equivalent per liter (g ae/L)); fluroxypyr methylheptyl ester (meptyl or MHE, as Starane™, 179.8 g ae/L); 2,4-dichlorophenoxyacetic acid dimethylammonium (2,4-D DMA, as Weedar® 64, 455.4 g ae/L); and penoxsulam (as Grasp® SC, 239.7 grams active ingredient per liter (g ai/L) were used. Measured amounts of formulated compounds were placed in individual 120 mL glass vials and were dissolved in 40 mL of an aqueous mixture containing 1.25% volume per volume (v/v) Agri-Dex® crop oil concentrate. Generally, multiple concentrations were tested utilizing the same stock solution. Applications were made by injecting an appropriate amount of the application solution into the aqueous layer of the paddy. Control plants were treated in the same manner with the solvent blank.
(§3) The treated plants and control plants were placed in a greenhouse as described above and water was added as needed to maintain a paddy flood. After approximately 3 weeks the condition of the test plants, compared with that of the untreated plants, was determined visually and scored on a scale of 0 to 100 percent where 0 corresponds to no injury or growth reduction and 100 corresponds to complete kill.

[2] = tested on: 'Wells' rice (Medium grain rice variety from Arkansas, USA); experiment: as above
Source text: as §1, §2, §3

[3] = tested on: CYPDI = Cyperus difformis (small-flower flatsedge); experiment: Greenhouse in-water herbicidal activity (large pots); settings: for Percent (%) Visual Injury Ratings - 16 DAA, CYPDI / Percent (%) Visual Injury Ratings - 22 DAA, CYPDI: greenhouse large pots; for pest or weed control at 280 g/ha / pest or weed control at 560 g/ha / pest or weed control at 1120 g/ha: Cyperus difformis, 744 h, read-out: Percent (%) Visual Injury Ratings - 31 DAA, CYPDI
Description: (§4) Weed seeds or nutlets of the desired test plant species were planted in puddled soil (mud) prepared by mixing shredded topsoil and deionized (DI) water in a 1:1 ratio in a standard cement mixer. […] Osmocote® (17:6:10 N:P:K; 0.5 teaspoon) was added to the bottom of a container. The container is a high-density polyethylene (HDPE) round container (4.163 L (1.1 gallon), 15 cm high×20.55 cm diameter; for treatment purposes, the surface area is calculated as 331 cm^2 with 1 hectare equivalent to 10^8 cm^2). The mud mixture (2,750 mL) was added to the container filling it half full. Stakes were placed horizontally in each container to create separate areas for which to plant each different plant species. Water was added on a regular basis to maintain the paddy flood, and supplemental lighting was provided with overhead metal halide 1000-Watt lamps as necessary.
(§5) Once the plants had reached the proper size (the growth stage of the various species ranged from 2 to 4 leaves), the containers were flooded with city water to a depth of 3 cm submerging the plants 80-100%. The outside of each container was measured and marked at a 3-cm line with a black permanent marker to eliminate water level variability during the trial period. Water was added daily to maintain this water depth. Triclopyr triethylammonium (as Garlon® 3 A, 360 g ae/L); triclopyr butoxyethyl ester (as Garlon® 4, 480 g ae/L); fluroxypyr methylheptyl ester (meptyl or MHE, as Starane® Ultra, 333 g ae/L); fluroxypyr acid (850 grams acid equivalent per kilogram (g ae/kg)); 2,4-dichlorophenoxyacetic acid dimethylammonium (2,4-D DMA, as Weedar® 64 EC, 456 g ae/L); 2,4-dichlorophenoxyacetic acid 2-ethylhexyl ester (2,4-D 2-EHE, as Agri Star®, 456 g ae/L); clopyralid olamine (as Stinger®, 360 g ae/L); and penoxsulam (as Grasp® SC, 240 g ai/L) were used. Each herbicide treatment for each pot was mixed in water (80 mL) and applied directly into the paddy water at rates adjusted to the surface area. The dry formulations were pre-weighed based on the rate of the active ingredient to be applied on a per unit area basis, placed in 30 mL vials, and capped. Granules were spread onto the top of the water in each pot and dispersed throughout the water. Treatments were replicated 3 times.
(§6) The treated plants and control plants were placed in a greenhouse as described above and water was added as needed to maintain a flood depth of 3 cm. […]

[4] = tested on: ECHCG = Echinochloa crus-galli (barnyardgrass); experiment: as above; settings: 744 h, read-out: Percent (%) Visual Injury Ratings - 31 DAA, ECHCG
Description: as §4, §5, §6

[5] = tested on: MOOVA = Monochoria vaginalis (monochoria); experiment: as above; settings: for Percent (%) Visual Injury Ratings - 16 DAA, MOOVA / Percent (%) Visual Injury Ratings - 22 DAA, MOOVA: greenhouse large pots; for pest or weed control at 280 g/ha / pest or weed control at 560 g/ha / pest or weed control at 1120 g/ha: Pontederia vaginalis, 744 h, read-out: Percent (%) Visual Injury Ratings - 31 DAA, MOOVA
Description: as §4, §5, §6

[6] = tested on: ORYSP = Oryza sativa (transplanted paddy rice); experiment: Greenhouse in-water application (large pots), crop injury
Description: as §4, §5, §6

| SMILES | Percent (%) Visual Injury Ratings - 20 DAA, M202′ Rice ([1]; 280 g ae/ha in-water) [%] | Percent (%) Visual Injury Ratings - 20 DAA, M202′ Rice ([1]; 560 g ae/ha in-water) [%] | Percent (%) Visual Injury Ratings - 20 DAA, M202′ Rice ([1]; 1120 g ae/ha in-water) | Percent (%) Visual Injury Ratings - 20 DAA, Wells′ Rice ([2]; 280 g ae/ha in-water) [%] | Percent (%) Visual Injury Ratings - 20 DAA, Wells′ Rice ([2]; 560 g ae/ha in-water) [%] | Percent (%) Visual Injury Ratings - 20 DAA, Wells′ Rice ([2]; 1120 g ae/ha in-water) [%] | Percent (%) Visual Injury Ratings - 16 DAA, CYPDI ([3]; 35 g ae/ha) [%] | Percent (%) Visual Injury Ratings - 22 DAA, CYPDI ([3]; 35 g ae/ha) [%] | Percent (%) Visual Injury Ratings - 16 DAA, CYPDI ([3]; 70 g ae/ha) [%] | Percent (%) Visual Injury Ratings - 22 DAA, CYPDI ([3]; 70 g ae/ha) [%] | Percent (%) Visual Injury Ratings - 16 DAA, CYPDI ([3]; 140 g ae/ha) [%] | Percent (%) Visual Injury Ratings - 22 DAA, CYPDI ([3]; 140 g ae/ha) [%] | Percent (%) Visual Injury Ratings - 16 DAA, CYPDI ([3]; 280 g ae/ha) [%] | Percent (%) Visual Injury Ratings - 22 DAA, CYPDI ([3]; 280 g ae/ha) [%] | pest or weed control at 280 g/ha [3] [%] | pest or weed control at 560 g/ha [3] [%] | pest or weed control at 1120 g/ha [3] [%] | pest or weed control at 280 g/ha [4] [%] | pest or weed control at 560 g/ha [4] [%] | pest or weed control at 1120 g/ha [4] [%] | also measured |
| --- | --- | --- | --- | --- | --- | --- | --- | --- | --- | --- | --- | --- | --- | --- | --- | --- | --- | --- | --- | --- | --- |
| O=C(O)COc1nc(Cl)c(Cl)cc1Cl [Triclopyr triethanolamine (Garlon ® 3A), triethylammonium 2[(3,5,6-trichloro-2-pyridinyl)oxy]acetate] | 0 | 0 | 20% | 0 | 0 | 10 | 100 | 100 | 98 | 100 | 97 | 100 | 100 | 100 | 97 | 99 | 100 | 65 | 75 | 89 | Percent (%) Visual Injury Ratings - 16 DAA, MOOVA ([5]; 35 g ae/ha): 84%; Percent (%) Visual Injury Ratings - 22 DAA, MOOVA ([5]; 35 g ae/ha): 92%; Percent (%) Visual Injury Ratings - 16 DAA, MOOVA ([5]; 70 g ae/ha): 89%; Percent (%) Visual Injury Ratings - 22 DAA, MOOVA ([5]; 70 g ae/ha): 89%; Percent (%) Visual Injury Ratings - 16 DAA, MOOVA ([5]; 140 g ae/ha): 78%; Percent (%) Visual Injury Ratings - 22 DAA, MOOVA ([5]; 140 g ae/ha): 82%; Percent (%) Visual Injury Ratings - 16 DAA, MOOVA ([5]; 280 g ae/ha): 98%; Percent (%) Visual Injury Ratings - 22 DAA, MOOVA ([5]; 280 g ae/ha): 100%; pest or weed control at 280 g/ha [5]: 100%; pest or weed control at 560 g/ha [5]: 100%; pest or weed control at 1120 g/ha [5]: 100%; Percent (%) Visual Injury Ratings - 31 DAA, ORYSP ([6]; 280 g ae/ha in-water): 1%; Percent (%) Visual Injury Ratings - 31 DAA, ORYSP ([6]; 560 g ae/ha in-water): 5%; Percent (%) Visual Injury Ratings - 31 DAA, ORYSP ([6]; 1120 g ae/ha in-water): 70% |
| CCCCCCC(C)OC(=O)COc1nc(F)c(Cl)c(N)c1Cl (stereo not drawn) [Fluroxypyr-meptyl (Starane ® Ultra), 1-methylheptyl 2-[(4-amino-3,5-dichloro-6-fluoro-2-pyridinyl)oxy]acetate] | 0 | 0 | 35% | 0 | 0 | 10 | 8 | 28 | 13 | 28 | 20 | 79 | 33 | 89 | 100 | 100 | 100 | 45 | 75 | 99 | Percent (%) Visual Injury Ratings - 16 DAA, MOOVA ([5]; 35 g ae/ha): 27%; Percent (%) Visual Injury Ratings - 22 DAA, MOOVA ([5]; 35 g ae/ha): 0%; Percent (%) Visual Injury Ratings - 16 DAA, MOOVA ([5]; 70 g ae/ha): 27%; Percent (%) Visual Injury Ratings - 22 DAA, MOOVA ([5]; 70 g ae/ha): 3%; Percent (%) Visual Injury Ratings - 16 DAA, MOOVA ([5]; 140 g ae/ha): 13%; Percent (%) Visual Injury Ratings - 22 DAA, MOOVA ([5]; 140 g ae/ha): 0%; Percent (%) Visual Injury Ratings - 16 DAA, MOOVA ([5]; 280 g ae/ha): 5%; Percent (%) Visual Injury Ratings - 22 DAA, MOOVA ([5]; 280 g ae/ha): 15%; pest or weed control at 280 g/ha [5]: 100%; pest or weed control at 560 g/ha [5]: 100%; pest or weed control at 1120 g/ha [5]: 100%; Percent (%) Visual Injury Ratings - 31 DAA, ORYSP ([6]; 280 g ae/ha in-water): 5%; Percent (%) Visual Injury Ratings - 31 DAA, ORYSP ([6]; 560 g ae/ha in-water): 28%; Percent (%) Visual Injury Ratings - 31 DAA, ORYSP ([6]; 1120 g ae/ha in-water): 73% |
| O=C(O)COc1ccc(Cl)cc1Cl [2,4-D DMA (Weedar ® 64), dimethylammonium 2-(2,4-dichlorophenoxy)acetate] | 0 | 0 | 10* % | 0 | 0 | 0 | 99 | 89 | 100 | 76 | 98 | 92 | 97 | 98 | 100 | 100 | 100 | 30 | 38 | 65 | Percent (%) Visual Injury Ratings - 16 DAA, MOOVA ([5]; 35 g ae/ha): 98%; Percent (%) Visual Injury Ratings - 22 DAA, MOOVA ([5]; 35 g ae/ha): 84%; Percent (%) Visual Injury Ratings - 16 DAA, MOOVA ([5]; 70 g ae/ha): 90%; Percent (%) Visual Injury Ratings - 22 DAA, MOOVA ([5]; 70 g ae/ha): 72%; Percent (%) Visual Injury Ratings - 16 DAA, MOOVA ([5]; 140 g ae/ha): 87%; Percent (%) Visual Injury Ratings - 22 DAA, MOOVA ([5]; 140 g ae/ha): 88%; Percent (%) Visual Injury Ratings - 16 DAA, MOOVA ([5]; 280 g ae/ha): 89%; Percent (%) Visual Injury Ratings - 22 DAA, MOOVA ([5]; 280 g ae/ha): 98%; pest or weed control at 280 g/ha [5]: 100%; pest or weed control at 560 g/ha [5]: 100%; pest or weed control at 1120 g/ha [5]: 100%; Percent (%) Visual Injury Ratings - 31 DAA, ORYSP ([6]; 280 g ae/ha in-water): 0%; Percent (%) Visual Injury Ratings - 31 DAA, ORYSP ([6]; 560 g ae/ha in-water): 3%; Percent (%) Visual Injury Ratings - 31 DAA, ORYSP ([6]; 1120 g ae/ha in-water): 4% |
